In patent US4696937A, “Thiosulfonate derivatives for inhibiting malformation or destruction of red blood corpuscules” (Sanofi, priority 1984, dated 1987):

How the values were obtained:
[1] = system: red cells of subjects suffering from drepanocytosis; assay: Inhibition of sickling of human red blood corpuscules of subjects suffering from drepanocytosis; type: cell-based; conditions: pH 7.40, one hour at 37° C.
Method: Inhibition of the sickling of human red blood corpuscules was assessed by washing and incubating, in a saline buffer (pH: 7.40; 0.15M) for one hour at 37° C., the red cells of subjects suffering from drepanocytosis. This operation was carried out in a water-bath under stirring and in the presence of a compound of the invention used at different concentrations. The molar ratios between the compound of the invention and the haemoglobin were initially tested at intervals ranging from 0.5 to 20, the mM concentration in haemoglobin being 0.5 in each case and the ratio being modified according to the results obtained.
At the end of incubation, the excess of the product being tested was removed by washing and the cellular suspension adjusted so as to form a haematocrit of 5% was transferred to an Erlenmeyer flask and incubated at 37° C. under a current comprising a humidified mixture of nitrogen and oxygen the oxygen concentration being regulated by a gas-mixing pump. The effluent gas was then transferred to another tube containing formaldehyde and, at the end of incubation, the cellular suspension was transferred to the formaldehyde by merely turning the flask upside down.
The proportion of deformed cells and those having the characteristics of drepanocytes (having two filiform extensions) was assessed with the aid of a microscope having a NORMARSKY interferential optical system. Inhibition of sickling was calculated according to the following formula: [formula]
The following results were obtained with representative compounds of the present invention in comparison with cystamine.

sickling = conditions: literature: Inserm Symposium 1979; in words; cited from earlier work

| Compound | % inhibition of sickling of the red blood corpuscles ([1]; 0.5 mmolar) [%] | % inhibition of sickling of the red blood corpuscles ([1]; 1 mmolar) [%] | inhibiting sickling (sickling) | % inhibition of sickling of the red blood corpuscles ([1]; 5 mmolar) [%] |
| --- | --- | --- | --- | --- |
| Cc1ccc(S(=O)(=O)Sc2ncc[nH]2)cc1 [1H-imidazol-2-yl p-toluenethiosulfonate] | 50 | 100 | – | – |
| Cc1ccc(S(=O)(=O)Sc2nnc(N)s2)cc1 [5-amino-1,3,4-thiadiazol-2-yl p-toluenethiosulfonate] | – | 33 | – | – |
| NCCSSCCN [Cystamine, cystamine, reference compound] | – | – | particularly active | 33 |
